Bases are written 5' to 3'; sugars and linkages follow in the same order, as letters with counts (s phosphorothioate, o phosphodiester; PS: all linkages phosphorothioate). C may stand for cytosine or 5-methylcytosine; the collection does not tell. l = locked nucleic acid (LNA); d = 2'-deoxy (DNA)
The sequences below were run against HIF1A (assay: HeLa, 100 nM transfected, 24 h, mean of 3). Details: ASO.
In the case of “TGGCAAGCATCCTGTA (sugars lddldddddddldlll, PS)”, the caspase activation (% of PBS control) is reported as 303.
In the case of “GCAAGCATCCTGT (sugars l4 d6 l1 d1 l1, PS)”, the caspase activation (% of PBS control) is reported as 305.
“TGGCAAGCATCCTGTA (sugars lddllddddddlldll, PS)” gave a caspase activation (% of PBS control) of 388.
Sequence “TTACTGCCTTCTT (sugars l4 d6 l1 d1 l1, PS)” has a caspase activation (% of PBS control) of 308.
“GTTACTGCCTTCTTAC (sugars l1 d1 l1 d9 l4, PS)” gave a caspase activation (% of PBS control) of 147.
Sequence “TGGCAAGCATCCTGTA (sugars ldddldddddddlldl, PS)” has a caspase activation (% of PBS control) of 167.
Work on “TACTGCCTTCTTA (sugars l2 d1 l1 d8 l1, PS)” yielded a caspase activation (% of PBS control) of 222.
“GTTACTGCCTTCTTAC (sugars ldlddddddddllldl, PS)” showed a caspase activation (% of PBS control) of 271.
“GTTACTGCCTTCTTAC (sugars l4 d7 l1 d1 l3, PS)” gave a caspase activation (% of PBS control) of 253.
“GTTACTGCCTTCTTAC (sugars l2 d9 l2 d1 l2, PS)” showed a caspase activation (% of PBS control) of 223.
“TGGCAAGCATCCTGTA (sugars l2 d9 l1 d1 l3, PS)” was tested, and the caspase activation (% of PBS control) was 369.
Sequence “TGGCAAGCATCCTGTA (sugars l4 d7 l3 d1 l1, PS)” has a caspase activation (% of PBS control) of 575.
For “GCAAGCATCCTGT (sugars l1 d1 l2 d8 l1, PS)”, the caspase activation (% of PBS control) was 191.
With “TGGCAAGCATCCTGTA (sugars ldldldddddddlldl, PS)” the caspase activation (% of PBS control) was 218.
In the case of “ACTGCCTTCTTAC (sugars l1 d2 l1 d7 l2, PS)”, the caspase activation (% of PBS control) is reported as 112.
For “TGGCAAGCATCCTGTA (sugars l5 d6 l3 d1 l1, PS)”, the caspase activation (% of PBS control) was 366.
For “GTTACTGCCTTCTTAC (sugars ldldddddddddldll, PS)”, the caspase activation (% of PBS control) was 112.
For GTTACTGCCTTCTTAC (sugars l2 d13 l1, PS), the caspase activation (% of PBS control) was 102.
Work on “TGGCAAGCATCCTGTA (sugars lllddddddddldldl, PS)” yielded a caspase activation (% of PBS control) of 385.
With “CAAGCATCCTGTA (sugars l1 d1 l2 d7 l2, PS)” the caspase activation (% of PBS control) was 151.
“GGCAAGCATCCTG (sugars lddlddddddldl, PS)” was tested, and the caspase activation (% of PBS control) was 198.
Work on “TGGCAAGCATCCTGTA (sugars l1 d2 l2 d6 l5, PS)” yielded a caspase activation (% of PBS control) of 366.
“TTACTGCCTTCTT (sugars l1 d1 l1 d8 l2, PS)” was tested, and the caspase activation (% of PBS control) was 146.
Sequence GTTACTGCCTTCT (sugars l2 d8 l3, PS) has a caspase activation (% of PBS control) of 168.
Work on “GTTACTGCCTTCTTAC (sugars ldldlddddddddlll, PS)” yielded a caspase activation (% of PBS control) of 214.
“GTTACTGCCTTCTTAC (sugars ldddlddddddddldl, PS)” gave a caspase activation (% of PBS control) of 159.
“GGCAAGCATCCTG (sugars l1 d1 l2 d8 l1, PS)” was tested, and the caspase activation (% of PBS control) was 547.
Work on GCAAGCATCCTGT (sugars l2 d9 l2, PS) yielded a caspase activation (% of PBS control) of 285.
Work on “GTTACTGCCTTCTTAC (sugars l1 d3 l1 d9 l2, PS)” yielded a caspase activation (% of PBS control) of 103.
Work on “GTTACTGCCTTCTTAC (sugars ldllldddddddlldl, PS)” yielded a caspase activation (% of PBS control) of 470.
“GTTACTGCCTTCTTAC (sugars lldldddddddldldl, PS)” showed a caspase activation (% of PBS control) of 193.
“GTTACTGCCTTCTTAC (sugars ldlllddddddldlll, PS)” gave a caspase activation (% of PBS control) of 427.
Sequence “GTTACTGCCTTCTTAC (sugars ldldlddddddldldl, PS)” has a caspase activation (% of PBS control) of 251.
“TGGCAAGCATCCT (sugars l1 d2 l1 d6 l3, PS)” was tested, and the caspase activation (% of PBS control) was 112.
In the case of “TGGCAAGCATCCTGTA (sugars ldldlddddddllldl, PS)”, the caspase activation (% of PBS control) is reported as 261.
In the case of “GTTACTGCCTTCTTAC (sugars l2 d2 l1 d7 l4, PS)”, the caspase activation (% of PBS control) is reported as 324.
With “GTTACTGCCTTCTTAC (sugars ldllddddddddlddl, PS)” the caspase activation (% of PBS control) was 183.
Sequence “TGGCAAGCATCCTGTA (sugars lddlddddddddlddl, PS)” has a caspase activation (% of PBS control) of 312.
For “TACTGCCTTCTTA (sugars l1 d9 l1 d1 l1, PS)”, the caspase activation (% of PBS control) was 142.
With “GCAAGCATCCTGT (sugars ldldddddddldl, PS)” the caspase activation (% of PBS control) was 181.
In the case of “TGGCAAGCATCCTGTA (sugars l1 d1 l3 d10 l1, PS)”, the caspase activation (% of PBS control) is reported as 595.
In the case of “GTTACTGCCTTCTTAC (sugars ldlllddddddddldl, PS)”, the caspase activation (% of PBS control) is reported as 438.
Sequence “TGGCAAGCATCCT (sugars l1 d9 l1 d1 l1, PS)” has a caspase activation (% of PBS control) of 242.
Sequence “GTTACTGCCTTCTTAC (sugars ldldlddddddldddl, PS)” has a caspase activation (% of PBS control) of 234.
Work on “ACTGCCTTCTTAC (sugars l4 d6 l1 d1 l1, PS)” yielded a caspase activation (% of PBS control) of 393.
“TGGCAAGCATCCTGTA (sugars lldllddddddldldl, PS)” was tested, and the caspase activation (% of PBS control) was 483.
Work on TGGCAAGCATCCTGTA (sugars l5 d9 l2, PS) yielded a caspase activation (% of PBS control) of 402.
“TGGCAAGCATCCTGTA (sugars ldlldddddddlldll, PS)” showed a caspase activation (% of PBS control) of 381.
Sequence TACTGCCTTCTTA (sugars l1 d11 l1, PS) has a caspase activation (% of PBS control) of 112.
Work on “GTTACTGCCTTCT (sugars l2 d1 l1 d6 l3, PS)” yielded a caspase activation (% of PBS control) of 183.
“GTTACTGCCTTCTTAC (sugars l1 d1 l2 d11 l1, PS)” gave a caspase activation (% of PBS control) of 156.
“TGGCAAGCATCCTGTA (sugars lldldddddddllldl, PS)” showed a caspase activation (% of PBS control) of 419.
“TGGCAAGCATCCTGTA (sugars lllllddddddldldl, PS)” gave a caspase activation (% of PBS control) of 373.
Work on “TACTGCCTTCTTA (sugars l2 d1 l1 d7 l2, PS)” yielded a caspase activation (% of PBS control) of 295.
“GTTACTGCCTTCTTAC (sugars l3 d9 l1 d1 l2, PS)” was tested, and the caspase activation (% of PBS control) was 188.
For “GTTACTGCCTTCTTAC (sugars l2 d1 l1 d7 l5, PS)”, the caspase activation (% of PBS control) was 335.
Work on “GTTACTGCCTTCTTAC (sugars l3 d1 l1 d10 l1, PS)” yielded a caspase activation (% of PBS control) of 185.
Sequence “TGGCAAGCATCCTGTA (sugars llldlddddddldldl, PS)” has a caspase activation (% of PBS control) of 350.
For “GTTACTGCCTTCTTAC (sugars l1 d2 l2 d7 l4, PS)”, the caspase activation (% of PBS control) was 361.
In the case of ACTGCCTTCTTAC (sugars l4 d6 l3, PS), the caspase activation (% of PBS control) is reported as 410.
For GTTACTGCCTTCTTAC (sugars l5 d9 l2, PS), the caspase activation (% of PBS control) was 363.
TGGCAAGCATCCTGTA (sugars l2 d13 l1, PS) gave a caspase activation (% of PBS control) of 489.
For TGGCAAGCATCCTGTA (sugars l3 d8 l5, PS), the caspase activation (% of PBS control) was 476.
In the case of “CAAGCATCCTGTA (sugars l2 d1 l1 d6 l3, PS)”, the caspase activation (% of PBS control) is reported as 119.
“TGGCAAGCATCCTGTA (sugars ldldlddddddldlll, PS)” gave a caspase activation (% of PBS control) of 309.
“GTTACTGCCTTCTTAC (sugars ldlldddddddldddl, PS)” showed a caspase activation (% of PBS control) of 213.
In the case of GCAAGCATCCTGT (sugars l4 d6 l3, PS), the caspase activation (% of PBS control) is reported as 340.
“GTTACTGCCTTCTTAC (sugars ldlldddddddlldll, PS)” showed a caspase activation (% of PBS control) of 218.
In the case of “GTTACTGCCTTCTTAC (sugars llddlddddddllldl, PS)”, the caspase activation (% of PBS control) is reported as 373.
Sequence “TGGCAAGCATCCTGTA (sugars l5 d7 l1 d2 l1, PS)” has a caspase activation (% of PBS control) of 386.
GTTACTGCCTTCTTAC (sugars l3 d9 l4, PS) gave a caspase activation (% of PBS control) of 165.
Sequence “TGGCAAGCATCCTGTA (sugars lddllddddddllddl, PS)” has a caspase activation (% of PBS control) of 388.
In the case of “TGGCAAGCATCCTGTA (sugars l2 d9 l1 d2 l2, PS)”, the caspase activation (% of PBS control) is reported as 424.
“GTTACTGCCTTCTTAC (sugars lddllddddddldldl, PS)” was tested, and the caspase activation (% of PBS control) was 207.
“TGGCAAGCATCCTGTA (sugars l2 d2 l1 d9 l2, PS)” was tested, and the caspase activation (% of PBS control) was 391.
Sequence “TGGCAAGCATCCTGTA (sugars lldlddddddddldll, PS)” has a caspase activation (% of PBS control) of 502.
Work on “TTACTGCCTTCTT (sugars l2 d1 l1 d8 l1, PS)” yielded a caspase activation (% of PBS control) of 147.
For “GTTACTGCCTTCT (sugars l3 d7 l1 d1 l1, PS)”, the caspase activation (% of PBS control) was 161.
With “GCAAGCATCCTGT (sugars l1 d1 l2 d6 l3, PS)” the caspase activation (% of PBS control) was 186.
“TGGCAAGCATCCTGTA (sugars lldllddddddllldl, PS)” gave a caspase activation (% of PBS control) of 474.
With “TGGCAAGCATCCTGTA (sugars lddldddddddlddll, PS)” the caspase activation (% of PBS control) was 271.
“TGGCAAGCATCCTGTA (sugars lddllddddddldldl, PS)” gave a caspase activation (% of PBS control) of 402.
“TGGCAAGCATCCTGTA (sugars ldddlddddddddldl, PS)” was tested, and the caspase activation (% of PBS control) was 139.
In the case of “TGGCAAGCATCCTGTA (sugars ldlllddddddlldll, PS)”, the caspase activation (% of PBS control) is reported as 437.
Sequence “GTTACTGCCTTCTTAC (sugars lddlddddddddlddl, PS)” has a caspase activation (% of PBS control) of 112.
TGGCAAGCATCCTGTA (sugars l2 d12 l2, PS) was tested, and the caspase activation (% of PBS control) was 389.
“GGCAAGCATCCTG (sugars l2 d1 l1 d6 l3, PS)” was tested, and the caspase activation (% of PBS control) was 502.
TACTGCCTTCTTA (sugars l2 d9 l2, PS) was tested, and the caspase activation (% of PBS control) was 184.
Sequence “GTTACTGCCTTCTTAC (sugars ldldlddddddllddl, PS)” has a caspase activation (% of PBS control) of 282.
“TGGCAAGCATCCTGTA (sugars ldldlddddddldldl, PS)” showed a caspase activation (% of PBS control) of 175.
“GTTACTGCCTTCTTAC (sugars l3 d8 l1 d3 l1, PS)” gave a caspase activation (% of PBS control) of 198.
In the case of TGGCAAGCATCCT (sugars l1 d11 l1, PS), the caspase activation (% of PBS control) is reported as 123.
Sequence “TTACTGCCTTCTT (sugars l2 d1 l1 d7 l2, PS)” has a caspase activation (% of PBS control) of 202.
“TGGCAAGCATCCTGTA (sugars l1 d2 l1 d11 l1, PS)” was tested, and the caspase activation (% of PBS control) was 178.
Work on ACTGCCTTCTTAC (sugars l1 d11 l1, PS) yielded a caspase activation (% of PBS control) of 130.
With “TGGCAAGCATCCTGTA (sugars l1 d3 l1 d10 l1, PS)” the caspase activation (% of PBS control) was 146.
With “TGGCAAGCATCCTGTA (sugars lddllddddddldlll, PS)” the caspase activation (% of PBS control) was 353.
Sequence “GTTACTGCCTTCTTAC (sugars l2 d9 l1 d1 l3, PS)” has a caspase activation (% of PBS control) of 157.
With “TGGCAAGCATCCTGTA (sugars ldddlddddddllddl, PS)” the caspase activation (% of PBS control) was 246.
Work on “TGGCAAGCATCCTGTA (sugars l4 d8 l1 d1 l2, PS)” yielded a caspase activation (% of PBS control) of 385.
